From patent publication US20260365696A1, “INHIBITORS OF PTP1B / NCK1 INTERACTION AND METHODS OF MAKING AND USING SAME” (Radella Pharmaceuticals LLC, priority 2023, published 2026)

How the values were obtained:
HFD-fed mice = test: High-fat diet-induced obesity and type 2 diabetes model; type: in vivo, mouse; conditions: 30 mg/kg IP daily, 7 weeks
From the text: Animals: All animals were housed and tested following European (Directive on the Protection of Animals used for Scientific Purposes, 2010/63/EU) and UK Home Office regulations. Experiments were approved by the University Ethics Board and carried out in accordance with the Animal (Scientific Procedures) Act 1986 and following ARRIVE guidelines. C57BL/6 male mice (~3-4 months) were purchased from Charles River, UK. All mice received high fat and cholesterol diet (42% fat plus 0.2% cholesterol, #TD.88137, Envigo, US) to induce experimental type 2 diabetes and obesity phenotype. All mice had ad libitum access to food and water and were kept in a 12 h light/dark cycle.
Briefly, after 8 weeks of high fat/high cholesterol diet feeding, mice were counterbalanced according to their body weight in to control (n=10) or MD20 30 mg/kg (n=10) groups. MD20 compound (30 mg/kg) was administered once daily via intraperitoneal (IP) injection for 7 weeks, whereas control mice received daily IP injection of vehicle (PBS). MD20 was kept at −20 °C and dissolved in sterile phosphate buffered saline (PBS) freshly every day before the injection. Three mice died during the study, and the final number of animals was: control (n=9) and MD20 30 mg/kg (n=8).
Bodyweights and body mass composition: Bodyweights were recorded during the study. Fat mass and lean mass composition were analysed using an EchoMRI scanner (EchoMedical Systems, Houston, TX, U.S.A.).
Metabolic measurements: All animals were 5 h-fasted before metabolic testing. Tail blood glucose was measured using AlphaTRAK 2 glucose strips and glucometer (Abbot, UK). Glucose tolerance tests (GTT) and insulin tolerance tests (ITT) were performed by IP injection of 2 mg/g of glucose (GTT) or 0.6 mU/g insulin (ITT), and glucose levels were measured at 15, 30, 60 and 90 min post-injection.
(§1) Serum and liver assays: Trunk-derived blood was collected from 5 h-fasted mice into serum separator microtubes and kept at −80 °C. Serum was used for insulin (#EZRMI-13K, Merck), leptin (#90030, Crystal Chem), free fatty acids (FFA; #mak044, Sigma-Aldrich), cholesterol (#MAK043, Sigma Aldrich), alanine, and aspartate aminotransferase (ALT and AST; ab105134 and ab105135, Abcam) analyses. Serum and liver triglycerides were determined using triglyceride reagents (#T2449, #F6428, #G7793, Sigma Aldrich).
Statistical analyses: Data were reported as means±SEM and analysed using one- or two-way ANOVA with Bonferroni post hoc tests, as appropriate. GraphPad Prism (V8, GraphPad Software, Inc., San Diego, California, USA) was used for statistical analyses. P-values <0.05 were considered significant.

LDLR−/− mice = test: LDLR−/− mouse model of atherosclerosis; type: in vivo; conditions: 30 mg/kg IP daily
From the text: Animals: All animals were housed and tested following European (Directive on the Protection of Animals used for Scientific Purposes, 2010/63/EU) and UK Home Office regulations. Experiments were approved by the University Ethics Board and carried out in accordance with the Animal (Scientific Procedures) Act 1986 and following ARRIVE guidelines. LDLR−/− male mice (~6-7 weeks old) were purchased from Jackson, US. All mice received a high fat/high cholesterol diet (42% fat plus 0.2% cholesterol, #TD.88137, Envigo, US), to induce atherosclerosis phenotype associated with obesity and type 2 diabetes. All mice had ad libitum access to food and water and were kept in a 12 h light/dark cycle.
Treatments: After 8 weeks of high fat/high cholesterol diet feeding, mice were randomized in to control (n=10) or MD20 30 mg/kg (n=9) groups. MD20 compound (30 mg/kg) was administered once daily via intraperitoneal (IP) injection for 7 weeks, whereas control mice received a daily IP injection of vehicle (PBS). MD20 was kept at −20 °C and dissolved in sterile phosphate buffered saline (PBS) freshly every day before the injection. Two mice died during the study and final numbers per group were: control (n=8) and MD20 30 mg/kg (n=9).
Bodyweights and body mass composition: Body weights were recorded during the study, and fat and lean mass composition was analyzed using an EchoMRI scanner (EchoMedical Systems, Houston, TX, U.S.A.).
Metabolic measurements: All animals were 5 h-fasted before metabolic tests. Tail blood glucose was measured using AlphaTRAK 2 glucose strips and glucometer (Abbot, UK).
Glucose and insulin tolerance tests (GTT, ITT) were performed by IP injection of 2 mg/g of glucose (GTT) or 0.6 mU/g insulin (ITT), and glucose levels were measured at 15, 30, 60 and 90 min post-injection.
as §1, with “and alanine” for “alanine,”
Aortic plaques analyses: Hearts with aortas attached were immersed in formalin and stored at 4 °C for 24 h following dissection, and transferred in to PBS thereafter. Aortas were sub-dissected under microscope and prepared for staining with Oil Red O. Images were captured using a light microscope. Plaque formation was quantified using ImageJ software, and results were expressed as % plaque area.
Statistical analyses: Data were reported as means±SEM and analyzed using one- or two-way ANOVA with Bonferroni post hoc tests, as appropriate. GraphPad Prism (V8, GraphPad Software, Inc., San Diego, California, USA) was used for statistical analyses. P-values <0.05 were considered significant.

In the case of Ac-PRPPKR-NH2 [MD20, Ac-PRPPKR-NH2], the “fasted basal glucose levels” value (HFD-fed mice) is reported as “No significant differences”, the fasted serum cholesterol (HFD-fed mice) is reported as “No significant differences” and the “fasted serum free fatty acids” value (HFD-fed mice) is reported as “No significant differences”. For the same substance, the fasted serum insulin (HFD-fed mice) was “No significant differences”, the fasted serum leptin (HFD-fed mice) was “No significant differences” and the hepatic toxicity (HFD-fed mice) was “most likely did not induce hepatic toxicity”. For the same substance, the liver triglycerides (HFD-fed mice) was “No significant differences”, the “serum ALT” value (HFD-fed mice) was “No significant differences” and the “serum AST” value (HFD-fed mice) was “No significant differences”. The serum triglycerides (HFD-fed mice) was “No significant differences”, the body weight gain (HFD-fed mice; vs control) was “inhibited body weight gain” and the fat mass gain (HFD-fed mice; vs control) was “inhibited fat mass gain”. The “glucose tolerance test (GTT)” value (HFD-fed mice; 2 mg/g glucose) was “No significant differences”, the “insulin sensitivity during ITT” value (HFD-fed mice; 0.6 mU/g insulin) was “improved insulin sensitivity during ITT” and the “% change in fat mass” value (LDLR−/− mice; vs control) was “a trend to ward a decreased % change in fat mass”. For the same substance, the aortic plaque area (LDLR−/− mice; vs control) was “No statistically significant differences”, the “% change in body weights” value (LDLR−/− mice; vs vehicle) was “significant interaction” and the “body weights during the weeks of treatment” value (LDLR−/− mice; vs vehicle) was “significant interaction”. For the same substance, the fat mass content (LDLR−/− mice; vs vehicle) was “No statistically significant differences”, the lean mass (LDLR−/− mice; vs vehicle) was “No significant changes in lean mass” and the raw body weights (LDLR−/− mice; vs vehicle) was “No statistically significant differences”. For the same substance, the “glucose tolerance test (GTT)” value (LDLR−/− mice; 2 mg/g glucose) was “No statistically significant differences”, the “insulin tolerance test (ITT)” value (LDLR−/− mice; 0.6 mU/g insulin) was “not statistically significant, slight improvements could be seen” and the hepatic triglycerides (LDLR−/− mice; 5 h-fasted) was “No statistically significant differences”. The “serum ALT” value (LDLR−/− mice; 5 h-fasted) was “No statistically significant differences”, the “serum AST” value (LDLR−/− mice; 5 h-fasted) was “No statistically significant differences” and the serum cholesterol (LDLR−/− mice; 5 h-fasted) was “No statistically significant differences”. The “serum free fatty acids” value (LDLR−/− mice; 5 h-fasted) was “No statistically significant differences”, the serum insulin (LDLR−/− mice; 5 h-fasted) was “No statistically significant differences” and the serum leptin (LDLR−/− mice; 5 h-fasted) was “No statistically significant differences”. For the same substance, the serum triglycerides (LDLR−/− mice; 5 h-fasted) was “No statistically significant differences”.
